From US20120238566A1, “USE OF CELL AUTOPHAGY (TYPE II CELL APOPTOSIS) INHIBITORS” (priority 2009, published 2012)
“Also recorded” adds a separate entry of the source. Like-named read-outs stand apart in the source and are kept apart here.

Key:
[1] = test system: Balb/c mice lung; conditions: mouse, in vivo
[2] = test system: Balb/c mice lung; conditions: mouse, in vivo; remark: listed apart in the source
[3] = test system: Balb/c mice; conditions: mouse, in vivo
[4] = test system: A549 cells; format: cell-based
[5] = test system: A549 cells; format: cell-based; remark: listed apart in the source
[6] = test system: Balb/c mice lung; conditions: mouse, in vivo; remark: listed apart in the source
[7] = test system: Balb/c mice lung; conditions: mouse, in vivo; remark: listed apart in the source
[8] = test system: A549 cells; format: cell-based; remark: listed apart in the source
[9] = test system: LC3; design: species or system Balb/c mice; conditions: mouse, in vivo

Cn1cnc(N)c2ncnc1-2 [3-MA, 3-methyladenine]
lung injury, pathological sections [1]: has some effect on ameliorating the lung injury
counts of inflammatory cells in lung pathological sections [2]: reduced the augmentation of the counts inflammatory cells
survival curve of mice [3]: can significantly relieve the death of mice; also recorded: has effect on delaying the death of mice
survival rate of A549 cells [4]: decreases the cell death; also recorded: can significantly reduce cell death
percentage of cells with EGFP-LC3 agglutination [5]: can be relieved
lung wet/dry ratio [6]: decreased the augmentation of wet/dry ratio
lung wet/dry ratio ([6]; ip): relieved the increased lung wet/dry ratio
lung elasticity [7]: relieves the changes of lung elasticity; also recorded: has some effect on relieving the induced injury
percentage of A549 cells with autophagy induced by PAMAM G3, electron microscope [8]: can be relieved; also recorded: reduced the percentage of cells with autophagy
content of LC3 II in mice lung tissue (ratio to β-actin) [9]: relieved the occurrence of autophagy

C[S+]([O-])c1ccc(-c2nc(-c3ccncc3)c(-c3ccc(F)cc3)[nH]2)cc1 (stereo not shown) [SB203580]
lung injury, pathological sections [1]: has some effect on ameliorating the lung injury; also recorded: has some effect on amelioratiing the lung injury
counts of inflammatory cells in lung pathological sections [2]: reduced the counts of infiltrated inflammatory cells; also recorded: reduced the augmentation of infiltrated inflammatory cells
cell autophagy induced by inactivated H5N1 avian influenza virus, electron microscope [8]: reduced cell autophagy; also recorded: can effectively inhibit the occurrence of autophagy
